We go through one molecule from patent US10471054B2, “CDK1 inhibitors of acetyl chrysin mannich base derivatives, synthesis and use thereof” (priority 2016, dated 2019).

Like-named read-outs stand apart in the source and are kept apart here.

A short description of one data set: Dissolution in pH media. Format: physicochemical. The conditions noted are these: 37° C. Here is the method: (§1) CH-j is pKa 5.3, log P 1.63 in Octanol/Water at 37° C. […] (BA-j 77m/ml). CH-j belongs to BCS II (low solubility, high permeability) and solubility presents the pH dependence. […] CH-j is a pH dependent fast release. […] It is speculated that CH-j has more appropriate log P and solubility with more likely entering tissue cells than others solubility acetyl Chrysin Mannich base derivatives.

The test system of the next data set is HIF-1α. The data set is described as follows: HIF-1α expression in BGC-823, immune-printing. It is filed as cell-based. The following applies: 0, 2.5, 5, 10 μM for 1 h, then insulin. As to the method:
BGC-823 was treated with 0, 2.5, 5, 10 μM CH-j for 1 h, then the 2 μM insulin was added, and 2 h were cultured, and the cells were collected and lysed.
FIG. 4: CH-j effect on the HIF-1 of BGC-823 was treated with 0, 2.5, 5, 10 μM CH-j for 1 h, then added 0.2 μM insulin culture for 24 h, and the HIF-1α and HIF-1β were determined by the immune imprinting method.

Data set [1] in a line: Pharmacokinetics by oral in monkey (urine drug concentration-time curve). It is filed as in vivo. The conditions noted are these: for Tmax: po. As to the method: Chromatographic conditions and the system applies: with C18 chromatographic column (acid the tall secretory effect, 5 μm, 4.6*150 mm), in acetonitrile-methanol-water-mesylate (25:20:55:0.15) as mobile phase, detection UV 283 nm, the velocity 1 ml/min, and the sample volume 20 μl. The theoretical plate number is not less than 2000 according to CH-j peak.
Sample solution: after the macaques were drugged, the catheter was inserted. The urine by oral CH-j 5 mg/kg is collected, added the methanol at 1:4 (v:v), centrifuge and remove the liquid to measure. Control solution is CH-j methanol solution 5 μg/ml. The log P of CH-j is larger, the fat solubility strong, and absorption distribution in the body very rapid, the urine drug concentration-time curve consistent with the typical two-compartment model. Tmax1, 1.3 h, Cmax1 is […]. […] The apparent distribution volume (Vd) 42 L, mainly distributed in body fluid (BA-j Vd 12.6 L, mainly distributed in blood. See Fitoterapia, 2015, 107: 36-34)
FIG. 5: The concentration of urine drug concentration-time curve in monkey (n=6) by CH-j oral 5 mg/kg, X-coordinate is oral CH-j time (h) and Y-coordinate is the concentration of CH-j (μM).

The nature of another data set: log P in Octanol/Water. The conditions noted are these: Octanol/Water at 37° C. It is filed as physicochemical. As to the method:
The solubility and log P of acetyl ChrysinMannich base derivatives see TABLE 1.
as §1
(about 20 times BA-f 277 μg/ml) and 564 μg/ml in water at 37° C. (about 1000 times BA-f 0.53m/ml). CH-f is BCS I (high solubility and permeability) and solubility presents the pH dependence. It is speculated that CH-f has more appropriate log P and solubility with entering systemic (blood system and tissue cells) than others solubility acetyl Chrysin Mannich base derivatives.

The target of another data set is CDK1 (Homo sapiens, UniProt P06493). The data set can be described thus: CDK1 inhibition activity. It is filed as biochemical.
CDK1, sequence (P06493 whole entry, species assumed): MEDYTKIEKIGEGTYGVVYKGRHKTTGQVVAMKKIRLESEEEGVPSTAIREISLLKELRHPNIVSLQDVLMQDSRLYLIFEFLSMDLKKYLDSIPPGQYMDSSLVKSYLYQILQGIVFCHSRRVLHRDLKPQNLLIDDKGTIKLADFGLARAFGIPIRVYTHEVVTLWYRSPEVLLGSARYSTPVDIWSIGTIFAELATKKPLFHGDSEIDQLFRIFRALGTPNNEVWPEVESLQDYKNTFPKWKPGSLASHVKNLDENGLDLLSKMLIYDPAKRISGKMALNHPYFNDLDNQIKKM
CDK1, sequence (P14635 whole entry partner, species assumed): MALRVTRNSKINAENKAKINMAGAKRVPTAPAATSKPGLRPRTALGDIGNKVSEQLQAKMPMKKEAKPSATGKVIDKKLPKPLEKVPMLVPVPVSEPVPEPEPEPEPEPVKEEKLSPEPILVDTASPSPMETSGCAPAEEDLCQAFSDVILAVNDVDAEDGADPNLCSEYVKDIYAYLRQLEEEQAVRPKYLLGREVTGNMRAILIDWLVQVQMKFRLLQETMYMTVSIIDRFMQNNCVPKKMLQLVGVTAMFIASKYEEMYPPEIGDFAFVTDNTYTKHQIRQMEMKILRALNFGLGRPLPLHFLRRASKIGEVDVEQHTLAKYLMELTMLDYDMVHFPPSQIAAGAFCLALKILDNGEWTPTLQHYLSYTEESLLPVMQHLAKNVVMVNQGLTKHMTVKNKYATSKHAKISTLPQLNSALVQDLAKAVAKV
The mark [2] stands for this setting: oral 5 mg/kg, monkey, urine drug concentration.
The mark [3] stands for this setting: oral, monkey (n = 6), 3 mg/kg in Table 4, 5 mg/kg in text.

With `CC(=O)c1c(O)c(CN2CCC(O)CC2)c2oc(-c3ccccc3)cc(=O)c2c1O` [CH-j, 6-Acetyl-5,7-dihydroxy-8-(4-hydroxy-piperidin-1-ylmethyl)-2-phenyl-chromen-4-one], the Dissolution was 90% in “Dissolution in pH media” (0.05M NaAC-HAC buffered solution (pH4.5)), 62% in “Dissolution in pH media” (0.1M HCl (pH1.2)), under 1.0% in “Dissolution in pH media” (PBS (pH6.8)) and under 0.1% in “Dissolution in pH media” (water). The HIF-1α expression result with HIF-1α was “inhibited HIF-1α expression in a dose-dependent manner”. Also, in data set [1] (monkey, in vivo), the “Maximum drug concentration, times higher than Chrysin” value is given as “about 40 times”. This molecule displayed a Cmax1 in data set [1] (setting [2]) of 26.4 µM. The “Cmax2, redistributive period” value in data set [1] (setting [2]) came to 13.2 µM. The molecule further gave a V d in data set [1] (setting [3]) of 42 L. In data set [1] (setting [3]), this molecule gave a t1/2β of 6.2 h. Further, the Tmax came out at 1.3 h in data set [1] (rhesus, monkey, urine, monkey (n = 6), 3 mg/kg in Table 4, 5 mg/kg in text, read-out: T max (Tmax1)) and 9 h in data set [1] (rhesus, monkey, urine, monkey (n = 6), 3 mg/kg in Table 4, 5 mg/kg in text, read-out: T max, redistributive period (Tmax2)). Moreover, the concentration at 24 h in data set [1] (rhesus, urine, oral 5 mg/kg, monkey) is under 3 µM. Also, the highest level in data set [1] (rhesus, urine, oral, monkey (n = 6), 3 mg/kg in Table 4, 5 mg/kg in text) (Cmax) was 26.4 µM. For the same molecule, in the data set “log P in Octanol/Water”, the “log P” value stood at 1.64. The lipophilicity (logP) in “log P in Octanol/Water” (octanol/water) is 1.63. Further, at CDK1, the “CDK1 inhibition, times stronger than BA-j” value is “about 2 times”. For the same molecule, the CDK1 50% inhibitory concentration at CDK1 (read-out: inhibiting CDK1 CC50) came out at 150 nM.

Broadly, the Cmax is the peak of the concentration-time curve. As usually defined, the log P is a log measure of how a compound divides between an organic and an aqueous phase. For orientation: logP means a log measure of how a compound divides between an organic and an aqueous phase.
